From patent US8367328B2, “Method for synthesizing DNA” (Takara Bio Inc., priority 1998, dated 2013)

Columns and labels:
Pfu DNA Polymerase II = molecular target: T1, Pfu DNA Polymerase II (Pyrococcus furiosus, UniProt P81409+P81412); experiment: PCR with Pfu DNA Polymerase II in the presence of acidic substances (λDNA template); type: biochemical; conditions: 0.5 kb fragment; 100 pg λDNA, primers λ1/λ2, 25 cycles 98°C 5 s–66°C 15 s; amount added 10 ng
T1 construct: made in house; host or cells: Escherichia coli JM109/pFU1001 (FERM BP-5579)
T1 sequence (P81409 1-1263): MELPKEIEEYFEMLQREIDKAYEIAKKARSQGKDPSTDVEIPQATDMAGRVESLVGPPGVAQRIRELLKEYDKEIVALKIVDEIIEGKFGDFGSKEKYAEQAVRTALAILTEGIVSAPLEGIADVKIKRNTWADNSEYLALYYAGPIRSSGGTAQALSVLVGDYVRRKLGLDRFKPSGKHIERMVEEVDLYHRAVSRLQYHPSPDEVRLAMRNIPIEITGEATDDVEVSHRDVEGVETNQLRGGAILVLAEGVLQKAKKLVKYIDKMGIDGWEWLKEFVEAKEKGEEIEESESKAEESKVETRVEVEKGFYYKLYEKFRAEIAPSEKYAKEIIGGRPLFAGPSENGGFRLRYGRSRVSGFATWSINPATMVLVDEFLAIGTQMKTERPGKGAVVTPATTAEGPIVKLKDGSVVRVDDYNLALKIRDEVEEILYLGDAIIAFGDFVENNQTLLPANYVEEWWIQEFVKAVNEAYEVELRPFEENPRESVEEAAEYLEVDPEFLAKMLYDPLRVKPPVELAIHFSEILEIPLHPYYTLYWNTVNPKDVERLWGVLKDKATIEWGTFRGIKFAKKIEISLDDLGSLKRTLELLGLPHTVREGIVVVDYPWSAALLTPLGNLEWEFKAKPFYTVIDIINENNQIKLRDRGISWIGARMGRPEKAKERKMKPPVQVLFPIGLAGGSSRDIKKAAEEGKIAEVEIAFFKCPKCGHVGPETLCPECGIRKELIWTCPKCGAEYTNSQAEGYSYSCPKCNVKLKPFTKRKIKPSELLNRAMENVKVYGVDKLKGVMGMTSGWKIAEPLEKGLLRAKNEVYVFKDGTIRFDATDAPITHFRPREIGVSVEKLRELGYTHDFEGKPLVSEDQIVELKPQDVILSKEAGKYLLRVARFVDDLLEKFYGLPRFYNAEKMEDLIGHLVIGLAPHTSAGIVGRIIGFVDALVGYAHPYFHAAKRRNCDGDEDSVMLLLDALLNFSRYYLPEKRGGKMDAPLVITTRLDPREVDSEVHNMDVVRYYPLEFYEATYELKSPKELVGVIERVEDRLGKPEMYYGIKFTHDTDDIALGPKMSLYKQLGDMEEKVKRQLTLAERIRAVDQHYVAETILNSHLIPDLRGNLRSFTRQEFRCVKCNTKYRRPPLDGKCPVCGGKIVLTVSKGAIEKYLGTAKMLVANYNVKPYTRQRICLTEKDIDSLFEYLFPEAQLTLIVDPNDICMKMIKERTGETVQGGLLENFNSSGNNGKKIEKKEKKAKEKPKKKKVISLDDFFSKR
T1 sequence (P81412 1-613): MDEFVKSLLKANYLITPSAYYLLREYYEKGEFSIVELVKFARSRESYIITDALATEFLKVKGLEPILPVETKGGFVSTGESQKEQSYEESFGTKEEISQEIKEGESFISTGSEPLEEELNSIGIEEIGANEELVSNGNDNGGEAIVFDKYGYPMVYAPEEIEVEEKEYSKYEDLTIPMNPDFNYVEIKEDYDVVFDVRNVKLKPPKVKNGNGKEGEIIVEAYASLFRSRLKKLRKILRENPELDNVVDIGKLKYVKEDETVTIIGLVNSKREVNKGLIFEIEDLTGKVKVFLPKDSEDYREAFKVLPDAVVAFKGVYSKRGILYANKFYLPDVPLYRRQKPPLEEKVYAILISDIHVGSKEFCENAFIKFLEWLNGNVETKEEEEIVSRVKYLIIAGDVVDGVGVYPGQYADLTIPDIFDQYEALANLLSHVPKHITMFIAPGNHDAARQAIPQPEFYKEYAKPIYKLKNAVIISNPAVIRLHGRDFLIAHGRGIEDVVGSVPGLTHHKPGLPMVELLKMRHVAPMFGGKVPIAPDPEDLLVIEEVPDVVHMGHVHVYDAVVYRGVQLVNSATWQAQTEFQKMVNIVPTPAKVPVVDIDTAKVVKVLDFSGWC
Procedure: A reaction mixture comprising λDNA as a template, primers λ1 and λ3 as a primer pair, and Pfu DNA Polymerase II as DNA polymerase was prepared, and PCR was carried out. The composition of the reaction mixture is as follows.
10 mM Tris-hydrochloric acid (pH 9.2), 75 mM potassium chloride, 6 mM magnesium chloride, 0.4 mM each of dATP, dCTP, dGTP and dTTP, 0.01% BSA, 1.25 U of Pfu DNA Polymerase II, 500 pg of λDNA, and 5 pmol each of primers λ1 and λ3 (a final volume being 25 μl). […]
Using the sulfated-fucose-containing Polysaccharide-F obtained in Example 6 described above, dextran sulfate powder (manufactured by Onco), or sodium alginate (100 to 150 centipoises, manufactured by Wako Pure Chemicals), the effects of these acidic substances on the activity of Pfu DNA Polymerase II were examined. A reaction mixture comprising λDNA as a template, primers λ1 and λ2 as a primer pair, and Pfu DNA Polymerase II as DNA polymerase was prepared, and PCR was carried out. The composition of the reaction mixture is as follows.
(§1) 10 mM Tris-hydrochloric acid, pH 9.2, 75 mM potassium chloride, 6 mM magnesium chloride, 0.4 mM each of dATP, dCTP, dGTP and dTTP, 0.01% BSA, 1.25 U of Pfu DNA Polymerase II, 100 pg of λDNA, and 5 pmol each of primers λ1 and λ2 (a final volume being 25 μl). Further, 10 ng of the sulfated-fucose-containing polysaccharide-F, 10 ng of dextran sulfate powder, or 1 μg of sodium alginate was respectively added to the above reaction mixture.
(§2) The reaction in 25 cycles was carried out for each of these reaction mixtures, wherein one cycle of reaction comprises a process consisting of 98° C., 5 seconds—66° C., 15 seconds. Thereafter, 5 μl of the resulting reaction mixture was subjected to electrophoresis on 1% agarose gel containing ethidium bromide in an amount of 0.00005%, whereby an amplified fragment was confirmed.
Further, studies were conducted on the effects of the sulfated-fucose-containing polysaccharide-F obtained in Example 6 described above, the sulfated-fucose-containing polysaccharide-U obtained in Example 7 described above, or sodium polyglutamate (manufactured by Sigma) as an acidic substance. A reaction mixture for PCR was prepared in the same manner as described above except for changing the amount of template λDNA to 500 pg and the primer pairs to primers λ1 and λ3. Five nanograms of the sulfated-fucose-containing polysaccharide-F, 5 ng, 10 ng, 20 ng or 30 ng each of the sulfated-fucose-containing polysaccharide-U, or 250 ng, 500 ng, 750 ng or 1000 ng each of sodium polyglutamate was respectively added to the above reaction mixture.
as §2, with “reaction” for “reaction in 25 cycles”, “in 30 cycles,” for “for each of these reaction mixtures,”, “After the termination of the reaction,” for “Thereafter,”
Using the sulfated-fucose-containing polysaccharide-F obtained in Example 6 described above, the effects on the activity of Pfu DNA Polymerase II were examined. A reaction mixture comprising λDNA as a template, primers λ1 and λ2 as a primer pair, and Pfu DNA Polymerase II as DNA polymerase was prepared, and PCR was carried out. The composition of the reaction mixture is as follows.
as §1, with “500” for “100”, “polysaccharide-F” for “polysaccharide-F, 10 ng of dextran sulfate powder, or 1 μg of sodium alginate”
The reaction in 30 cycles was carried out for each of these reaction mixtures, wherein one cycle of reaction comprises a process consisting of 98° C., 5 seconds—66° C., 15 seconds. […]

KOD DNA Polymerase = molecular target: T2, KOD DNA Polymerase (Thermococcus kodakarensis, UniProt P77933, DEL407-766/DEL852-1388); experiment: PCR with KOD DNA Polymerase (α-type) in the presence of acidic substances; type: biochemical, Pyrococcus sp.; conditions: 10 kb fragment, 100 pg λDNA, 30 cycles 98°C 5 s–68°C 3 min
T2 construct: purchased TOYOBO CO., LTD
Procedure: (1) Using sodium alginate, sodium hyaluronate (manufactured by Seikagaku Kogyo), or κ carrageenan (manufactured by Sigma), the effects of these acidic substances on α-type DNA polymerase were examined. A reaction mixture comprising λDNA as a template, primers λ1 and λ8 as a primer pair, and KOD DNA Polymerase (manufactured by TOYOBO CO., LTD.) as DNA polymerase was prepared, and PCR was carried out. The composition of the reaction mixture is as follows. Composition of Reaction Mixture: KOD DNA Polymerase Buffer I (manufactured by TOYOBO CO., LTD.) 0.2 mM each of dATP, dCTP, dGTP and dTTP, 0.625 U of KOD DNA Polymerase, 100 pg of λDNA, and 5 pmol each of primers λ1 and λ8 (a final volume being 25 μl). Further, 1 μg or 2.5 μg of sodium alginate, 0.1 μg or 0.5 μg of sodium hyaluronate, or 0.1 μg or 0.25 μg of κ carrageenan was respectively added to the above reaction mixture.
as §2, with “30” for “25”, “seconds—68°” for “seconds—66°”, “3 minutes.” for “15 seconds.”
(2) The effects on α-type DNA polymerase were also examined in the same manner as in item (1) above for sodium alginate, κ carrageenan, sodium heparan sulfate (manufactured by Sigma), sodium dermatan sulfate (manufactured by Sigma), potassium polyvinyl sulfate (manufactured by nacalaitesque) or sodium polystyrenesulfonate (two kinds: average molecular weights of 5,400 and 35,000, all manufactured by nacalaitesque). A reaction mixture comprising λDNA as a template, primers λ1 and λ8 as a primer pair, and KOD DNA Polymerase as DNA polymerase was prepared, and PCR was carried out. The composition of the reaction mixture is as follows. Composition of Reaction Mixture: KOD DNA Polymerase Buffer II (manufactured by TOYOBO CO., LTD.) 0.2 mM each of dATP, dCTP, dGTP and dTTP, 1.25 U of KOD DNA Polymerase, 100 pg of λDNA, and 10 pmol each of primers λ1 and λ8 (a final volume being 50 μl). Further, 2.5 μg or 5 μg of sodium alginate, 0.25 μg or 0.5 μg of κ carrageenan, or 125 ng, 250 ng or 375 ng of sodium dermatan sulfate, 500 ng of sodium heparan sulfate, 10 ng of potassium polyvinyl sulfate, 2.5 ng or 5 ng of sodium polystyrenesulfonate (average molecular weight: 5,400), or 5 ng of sodium polystyrenesulfonate (average molecular weight: 35,000) was respectively added to the above reaction mixture.

[1] = Buffer I, 0.625 U KOD, primers λ1/λ8, 25 μl, amount added 0.1 μg

T2 sequence (P77933 other isoform, or with tags, fused parts or gaps DEL407-766/DEL852-1388): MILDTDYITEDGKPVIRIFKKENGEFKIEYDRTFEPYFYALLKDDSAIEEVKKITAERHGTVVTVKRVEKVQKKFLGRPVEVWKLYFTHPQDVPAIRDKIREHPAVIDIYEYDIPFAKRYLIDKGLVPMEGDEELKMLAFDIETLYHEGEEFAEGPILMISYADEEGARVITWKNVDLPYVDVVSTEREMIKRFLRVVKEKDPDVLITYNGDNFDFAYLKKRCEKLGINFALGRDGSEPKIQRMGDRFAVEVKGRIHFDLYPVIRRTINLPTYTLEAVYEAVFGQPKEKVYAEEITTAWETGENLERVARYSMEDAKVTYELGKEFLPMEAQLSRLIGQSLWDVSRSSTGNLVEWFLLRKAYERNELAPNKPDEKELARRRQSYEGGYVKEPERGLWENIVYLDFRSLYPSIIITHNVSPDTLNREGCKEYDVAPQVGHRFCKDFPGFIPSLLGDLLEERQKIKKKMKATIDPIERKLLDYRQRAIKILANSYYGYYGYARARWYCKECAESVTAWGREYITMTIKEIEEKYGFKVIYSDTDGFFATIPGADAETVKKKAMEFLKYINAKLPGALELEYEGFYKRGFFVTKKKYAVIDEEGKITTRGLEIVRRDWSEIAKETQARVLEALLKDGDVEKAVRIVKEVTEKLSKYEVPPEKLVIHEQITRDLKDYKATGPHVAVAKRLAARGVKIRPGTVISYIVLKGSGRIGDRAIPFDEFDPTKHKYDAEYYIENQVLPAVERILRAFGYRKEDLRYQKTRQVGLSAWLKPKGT

## dextran sulfate [Dextran Sulfate Powder]
Pfu DNA Polymerase II
  Amplification Results: + (Amplification being observed)

## sodium dermatan sulfate
KOD DNA Polymerase; Buffer II, 1.25 U KOD, primers λ1/λ8, 50 μl, amount added 125 ng
  Amplification Results: + (Amplification being observed)
KOD DNA Polymerase; Buffer II, 1.25 U KOD, primers λ1/λ8, 50 μl, amount added 250 ng
  Amplification Results: + (Amplification being observed)
KOD DNA Polymerase; Buffer II, 1.25 U KOD, primers λ1/λ8, 50 μl, amount added 375 ng
  Amplification Results: + (Amplification being observed)

## sodium heparan sulfate
KOD DNA Polymerase; Buffer II, 1.25 U KOD, primers λ1/λ8, 50 μl, amount added 500 ng
  Amplification Results: + (Amplification being observed)

## sodium hyaluronate
KOD DNA Polymerase; [1]
  Amplification Results: + (Amplification being observed)
KOD DNA Polymerase; Buffer I, 0.625 U KOD, primers λ1/λ8, 25 μl, amount added 0.5 μg
  Amplification Results: + (Amplification being observed)

## κ carrageenan
KOD DNA Polymerase; [1]
  Amplification Results: + (Amplification being observed)
KOD DNA Polymerase; Buffer I, 0.625 U KOD, primers λ1/λ8, 25 μl, amount added 0.25 μg
  Amplification Results: + (Amplification being observed)
KOD DNA Polymerase; Buffer II, 1.25 U KOD, primers λ1/λ8, 50 μl, amount added 0.25 μg
  Amplification Results: ++ (Intensive amplification being observed)
KOD DNA Polymerase; Buffer II, 1.25 U KOD, primers λ1/λ8, 50 μl, amount added 0.5 μg
  Amplification Results: ++ (Intensive amplification being observed)
